Measured values taken from patent US4510158A, “2-Phenylindole derivatives, their use as complement inhibitors” (Sterling Drug Inc., priority 1984, dated 1985).

Experiments:
[1] = system: human complement (C1-C9), classical complement pathway; test: Hemolytic molecular titrations of classical complement activity (lysis of sensitized sheep erythrocytes by normal human serum); type: biochemical; conditions: concentration effecting 50% suppression of lysis (Z/Zo=0.5), 37° C., 60 min, read-out: Classical Complement Pathway Inhibition IC50
Description: (§1) The compounds were evaluated in vitro for their inhibition of human complement (C1-C9) using hemolytic molecular titrations, and the reverse passive Arthus reaction (RPAR) in guinea pigs was chosen as a complement mediated model of acute inflammation to be used to identify compounds with in vivo complement inhibitory activity.
Hemolytic molecular titrations of classical complement activity were performed according to Rapp and Borsos [Molecular Basis of Complement Action, Appleton-Century-Crofts, New York, NY, 1970] and complement inhibition assessed according to Hong et al. (J. Immunol. 1979, Vol. 122, 2418). Operationally, the test compound was maintained in the presence of complement during the lytic reaction of sensitized erythrocytes. Equal volumes (0.2 ml) of normal human serum (NHS), diluted in GVB^++ [Mayer, M. M. in Kabat and Mayer's Experimental Immunochemistry, 2nd Ed.; Charles C. Thomas, Springfield, Ill., 1961, p. 133] to effect lysis of Z=1, and test compound at various concentrations were mixed at 0° C. […] EA (0.2 ml of 1.5×10^8 cells/ml) and 1.8 ml of GVB^++ were added to the reaction mixture followed by incubating at 37° C. for 60 min. The extent of lysis was determined spectrophotometrically at 412 nm. The ratio of treated to untreated (Z/Zo) reaction mixtures was determined as a function of test compound concentration.

[2] = system: reverse passive Arthus reaction (RPAR); test: Reverse Passive Arthus Reaction (RPAR) in guinea pigs, complement mediated model of acute inflammation; type: in vivo, guinea pig; conditions: 80 mg/kg iv, 20 min before elicitation; p = 0.001
Description: as §1

Row | Molecule | IC50 [1] | RPAR % Inhib. [2]
1 | Gold sodium thiomalate [reference compound] | 1070 ± 90 µM | 
2 | O=C(O)C1CC=C(c2c(-c3ccccc3)[nH]c3ccccc23)CC1 (stereo not shown) [Example 1, 4-(2-Phenyl-1H-indol-3-yl)-3-cyclohexene-1-carboxylic acid] | 135 ± 2 µM | 64 ± 7%
3 | O=C(O)c1ccc(-c2c(-c3ccccc3)[nH]c3ccccc23)cc1 [Example 15, 4-(2-Phenyl-1H-indol-3-yl)benzoic acid] | 105 ± 4 µM | 
